According to ChEMBL document CHEMBL1201862, “PubChem BioAssay data set” (2004):
The source made the active and inactive calls.

Assays:
[1] = cytotoxicity in HepG2 cells, dose response, cytotoxicity control, cell-based, plate reader, dry powder (AID 651947); assay type: functional
[2] = growth inhibition of replicating M. tuberculosis, dose response, counter-screen, dry powder, IC90 (AID 651617); assay type: functional; conditions: Mycobacterium tuberculosis
[3] = inhibitors of non-replicating M. tuberculosis, dose response, luciferase, dry powder (AID 651619); assay type: functional; conditions: Mycobacterium tuberculosis
[4] = inhibitors of non-replicating M. tuberculosis, dose response, luciferase, dry powder (AID 651620); assay type: functional; conditions: Mycobacterium tuberculosis
[5] = cytotoxicity in HeLa cells, dose response, cytotoxicity control, cell-based, plate reader, dry powder (AID 651946); assay type: functional
[6] = P. falciparum Dd2 growth inhibitors, dose response, SYBR Green, dry powder samples (AID 1159566); assay type: functional, cell-based;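 further: potency for growth inhibition with lower SYBR green DNA signal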
[7] = HEK293 Cytotoxicity Assay Measured in Cell-Based System Using Plate Reader - 7071-01_Inhibitor_Dose_CherryPick_Activity_Set2.; assay type: functional
[8] = P. falciparum ATP4 D1247Y mutant growth inhibitors, dose response, NITD609-resistant line, SYBR Green, dry powder (AID 1159571); assay type: functional, cell-based;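 further: parasites synchronized at ring stage by sorbitol before testing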
[9] = P. falciparum Dd2 growth inhibitors, dose response, SYBR Green, cherry-picked samples (AID 1159567); assay type: functional, cell-based
[10] = P. falciparum 3D7-ScDHODH growth inhibitors, dose response, SYBR Green, dry powder samples (AID 1159570); assay type: functional, cell-based;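 further: parasite growth measured after 72 hours of compound exposure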
HEK293 = assay: HEK293T cell cytotoxicity, dose response, cytotoxicity control, ATP luminescence, cherry-pick samples (AID 687005); assay type: functional, cell-based; conditions: Homo sapiens;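 further: cells exposed to compound for 48 hours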
[11] = cytotoxicity in OV-90 ovarian cancer cells, dose response, PAX8 inhibitor project, cell-based, plate reader, dry powder, SA8 (AID 743149); assay type: functional
[12] = cytotoxicity in OVCAR8 ovarian cancer cells, dose response, PAX8 project, cell-based, plate reader, dry powder samples (AID 743197); assay type: functional; conditions: OVCAR-8
[13] = cytotoxicity in COV362 ovarian cancer cells, dose response, cytotoxicity control for PAX8 inhibitor project, cell-based, plate reader, dry powder, SA12 (AID 743144); assay type: functional
[14] = PAX2 cell-based inhibition, dose response, selectivity assay for PAX8 inhibitor project, plate reader, dry powder samples (AID 743048); assay type: functional;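 further: HEK293 cells carrying a WT1 promoter luciferase reporter driven by expressed Pax2; potency is for inhibition of Pax2 driven reporter signal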
[15] = cytotoxicity in OVCAR4 cells, dose response, cytotoxicity control for PAX8 inhibitor project, cell-based, plate reader, dry powder, SA11 (AID 743150); assay type: functional; conditions: OVCAR-4
[16] = NIH:OVCAR-3 ovarian cancer cell cytotoxicity, dose response, PAX8 inhibitor project, plate reader, dry powder samples (AID 743044); assay type: functional, cell-based
[17] = cytotoxicity dependent on PAX8, dose response, cell-based, plate reader, dry powder (AID 743049); assay type: functional
Paired box protein Pax-8 = Paired box protein Pax-8 (Homo sapiens, UniProt Q06710); assay: inhibitors of PAX8-driven TPO luciferase reporter, dose response, RMG-I cells, cherry-pick (AID 687027); assay type: functional, cell-based;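 further: luciferase reporter driven by Pax8 target thyroperoxidase promoter measured by SteadyGlo luminescence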
[18] = PAX5 activity inhibitors, dose response, selectivity assay for PAX8 inhibitor project, cell-based, plate reader, dry powder samples (AID 743047); assay type: functional;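 further: HEK293 cells carrying a Pax5 driven CD19 promoter luciferase reporter; potency of inhibitors that lower reporter luminescence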
[19] = cytotoxicity in COV434 cells, dose response, cytotoxicity control for PAX8 inhibitor project, cell-based, plate reader, dry powder, SA7 (AID 743145); assay type: functional
Ephrin type-A receptor 4 = Ephrin type-A receptor 4 (Mus musculus, UniProt Q03137); assay: inhibitors of EphA4 binding to KYL peptide, primary screen, biochemical, colorimetric, mouse EphA4 (AID 689); assay type: functional
Caspase-8 = Caspase-8 (Homo sapiens, UniProt Q14790); assay: caspase-8 inhibition counter-screen, dose response, selectivity assay for caspase-6 inhibitor project, biochemical, Z-IETD-R110 fluorescence, cherry-picked samples (AID 743294)
[20] = molecular target: Induced myeloid leukemia cell differentiation protein Mcl-1 (Homo sapiens, UniProt Q07820); assay type: functional
Caspase-7 = Caspase-7 (Homo sapiens, UniProt P55210); assay: human caspase-7 inhibitors, dose response, selectivity assay for caspase-6 inhibitor project, biochemical, DEVD-R110 fluorescence, cherry-pick (AID 743295)
Caspase-9 = Caspase-9 (Homo sapiens, UniProt P55211); assay: caspase-9 enzyme inhibition, dose response, selectivity assay for caspase-6 inhibitor project, biochemical, fluorescence, plate reader, cherry-picked samples (AID 743293)
Caspase-6 = molecular target: T1, Caspase-6 (Homo sapiens, UniProt P55212); assay: human caspase-6 inhibitors, dose response, biochemical, VEID-R110 fluorescence, cherry-pick (AID 720632)
T1 sequence (P55212 whole entry): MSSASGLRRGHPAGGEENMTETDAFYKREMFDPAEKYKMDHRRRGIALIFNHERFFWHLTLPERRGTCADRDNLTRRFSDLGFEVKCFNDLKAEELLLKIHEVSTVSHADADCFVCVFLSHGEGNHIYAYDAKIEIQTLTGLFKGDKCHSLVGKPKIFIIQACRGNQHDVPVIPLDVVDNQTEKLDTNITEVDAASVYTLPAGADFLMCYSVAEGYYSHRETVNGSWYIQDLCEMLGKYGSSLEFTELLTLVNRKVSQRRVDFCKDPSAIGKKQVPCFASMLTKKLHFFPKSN

[21] = molecular target: Eukaryotic translation initiation factor 4E (Mus musculus, UniProt P63073); assay: eIF4E–eIF4G protein interaction inhibitors, dose response, biochemical, TR-FRET (AID 855); assay type: functional;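 further: potency for disrupting eIF4E binding to eIF4GI seen as loss of FRET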
[22] = molecular target: NAD-dependent protein deacylase sirtuin-5, mitochondrial (Homo sapiens, UniProt Q9NXA8); assay: SIRT5 deacylase inhibitors, dose response, biochemical, fluorescence imaging, cherry-pick, set 6 (AID 720597)
[23] = HepG2 cell cytotoxicity, dose response, cytotoxicity control, ATP luminescence, cherry-pick, set 6 (AID 1053125); assay type: functional, cell-based
[24] = CTGF mRNA reduction under YAP1 overexpression, dose response, mechanism study for YAP1 pathway inhibitor project, DLD1 cells, RT-qPCR, cherry-pick (AID 1053127); assay type: functional, cell-based; conditions: DLD-1
[25] = YAP1 pathway inhibition via CTGF transcript levels, dose response, cell-based, DLD1 colon cancer, RT-qPCR, cherry-pick (AID 1053122); assay type: functional; conditions: Cancer cell lines
[26] = molecular target: C-X-C chemokine receptor type 4 (Homo sapiens, UniProt P61073); assay: SAR analysis of small molecule antagonists of the CXCR6 receptor using a CXCR4 receptor luminescent beta-arrestin counterscreen.; assay type: functional
[27] = molecular target: C-C chemokine receptor type 6 (Homo sapiens, UniProt P51684); assay: SAR analysis of small molecule antagonists of the CXCR6 receptor using a CCR6 receptor luminescent beta-arrestin counterscreen.; assay type: functional
[28] = Late stage assay provider results from the probe development effort to identify inhibitors of the Plasmodium falciparum M18 Aspartyl Aminopeptidase (M18AAP): radiolabel-based cell-based dose response assay to identify compounds that inhibit P. falciparum growth in RBCs, Set 2..; assay type: functional
[29] = molecular target: T2, Oxysterols receptor LXR-beta (Homo sapiens, UniProt P55055); assay: LXR agonists, Gal4 luciferase reporter, dose response, counter-screen for ssDAF-12 agonist project, cell-based, luminescence, HEK293, S. stercoralis campaign (AID 720737); assay type: functional; conditions: read-out: IC50 (the source's name)
[30] = Luminescence-based cell-based high throughput dose response assay to identify activators of the DAF-12 from the parasite S. stercoralis (ssDAF-12).; assay type: functional
[31] = molecular target: T2, Oxysterols receptor LXR-beta; assay type: functional, cell-based
[32] = HIF luciferase reporter inhibitors, dose response, ARNT-TACC3 inhibitor project, cell-based, dry powder samples, luminescence, 2158-07 (AID 720561); assay type: functional
[33] = HepG2 cell cytotoxicity, dose response, cytotoxicity control, plate reader, dry powder samples (AID 1159569); assay type: functional, cell-based;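 further: inhibitor potency with signal falling toward the positive control level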

T2 sequence (P55055 whole entry, the tested form may be a part): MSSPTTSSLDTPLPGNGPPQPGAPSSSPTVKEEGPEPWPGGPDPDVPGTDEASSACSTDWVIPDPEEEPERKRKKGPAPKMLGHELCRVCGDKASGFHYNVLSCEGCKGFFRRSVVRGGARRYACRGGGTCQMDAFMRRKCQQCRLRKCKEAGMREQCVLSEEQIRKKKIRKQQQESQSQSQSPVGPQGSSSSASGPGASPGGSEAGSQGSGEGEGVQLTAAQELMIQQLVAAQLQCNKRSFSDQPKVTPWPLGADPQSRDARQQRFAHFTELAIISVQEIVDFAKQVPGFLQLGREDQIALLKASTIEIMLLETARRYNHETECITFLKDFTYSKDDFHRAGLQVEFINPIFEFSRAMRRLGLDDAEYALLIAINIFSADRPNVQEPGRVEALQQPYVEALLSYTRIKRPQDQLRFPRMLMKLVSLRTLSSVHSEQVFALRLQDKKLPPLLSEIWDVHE
Chain of Caspase-9 (P55211 1-315 limits assumed): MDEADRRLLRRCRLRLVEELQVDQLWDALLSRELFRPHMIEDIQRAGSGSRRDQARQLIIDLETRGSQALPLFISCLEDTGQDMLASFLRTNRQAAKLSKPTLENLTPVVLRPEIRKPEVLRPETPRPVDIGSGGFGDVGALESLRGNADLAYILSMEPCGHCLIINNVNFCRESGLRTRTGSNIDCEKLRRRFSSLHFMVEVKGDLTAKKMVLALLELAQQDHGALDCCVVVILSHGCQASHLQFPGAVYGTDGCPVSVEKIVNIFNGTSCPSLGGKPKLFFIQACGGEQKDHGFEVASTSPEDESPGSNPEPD
Chain of Caspase-9 (P55211 331-416 limits assumed): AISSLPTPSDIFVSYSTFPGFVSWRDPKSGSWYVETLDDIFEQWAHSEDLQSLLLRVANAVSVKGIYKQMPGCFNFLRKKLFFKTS
Chain of C-X-C chemokine receptor type 4 (P61073 whole entry): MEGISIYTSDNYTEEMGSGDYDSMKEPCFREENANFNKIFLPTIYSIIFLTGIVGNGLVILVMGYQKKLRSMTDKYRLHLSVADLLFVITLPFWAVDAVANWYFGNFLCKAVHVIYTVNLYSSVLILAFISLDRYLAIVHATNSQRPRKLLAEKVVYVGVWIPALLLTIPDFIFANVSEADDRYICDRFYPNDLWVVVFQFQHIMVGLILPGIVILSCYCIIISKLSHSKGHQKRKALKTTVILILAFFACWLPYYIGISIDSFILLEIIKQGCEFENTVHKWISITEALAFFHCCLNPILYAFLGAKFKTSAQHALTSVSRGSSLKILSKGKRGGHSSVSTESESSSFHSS
Chain of NAD-dependent protein deacylase sirtuin-5, mitochondrial (Q9NXA8 whole entry): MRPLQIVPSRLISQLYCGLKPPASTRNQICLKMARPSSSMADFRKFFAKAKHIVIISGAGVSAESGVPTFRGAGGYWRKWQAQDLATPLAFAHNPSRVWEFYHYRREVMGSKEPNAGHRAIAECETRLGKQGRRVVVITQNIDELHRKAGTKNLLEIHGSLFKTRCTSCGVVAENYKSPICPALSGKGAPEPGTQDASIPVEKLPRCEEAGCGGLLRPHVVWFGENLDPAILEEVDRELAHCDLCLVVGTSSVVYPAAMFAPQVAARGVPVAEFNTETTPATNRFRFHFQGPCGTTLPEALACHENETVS
Chain of Induced myeloid leukemia cell differentiation protein Mcl-1 (Q07820 whole entry): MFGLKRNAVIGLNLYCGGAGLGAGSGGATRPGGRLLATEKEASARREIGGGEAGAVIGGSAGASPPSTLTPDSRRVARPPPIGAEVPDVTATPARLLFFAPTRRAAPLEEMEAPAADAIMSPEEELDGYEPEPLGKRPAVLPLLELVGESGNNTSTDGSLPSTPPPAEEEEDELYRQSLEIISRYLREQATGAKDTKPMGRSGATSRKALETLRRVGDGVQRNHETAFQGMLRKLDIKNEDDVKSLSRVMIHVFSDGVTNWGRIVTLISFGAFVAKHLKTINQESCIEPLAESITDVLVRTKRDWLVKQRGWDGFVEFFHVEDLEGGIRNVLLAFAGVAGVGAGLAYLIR
Chain of Paired box protein Pax-8 (Q06710 whole entry): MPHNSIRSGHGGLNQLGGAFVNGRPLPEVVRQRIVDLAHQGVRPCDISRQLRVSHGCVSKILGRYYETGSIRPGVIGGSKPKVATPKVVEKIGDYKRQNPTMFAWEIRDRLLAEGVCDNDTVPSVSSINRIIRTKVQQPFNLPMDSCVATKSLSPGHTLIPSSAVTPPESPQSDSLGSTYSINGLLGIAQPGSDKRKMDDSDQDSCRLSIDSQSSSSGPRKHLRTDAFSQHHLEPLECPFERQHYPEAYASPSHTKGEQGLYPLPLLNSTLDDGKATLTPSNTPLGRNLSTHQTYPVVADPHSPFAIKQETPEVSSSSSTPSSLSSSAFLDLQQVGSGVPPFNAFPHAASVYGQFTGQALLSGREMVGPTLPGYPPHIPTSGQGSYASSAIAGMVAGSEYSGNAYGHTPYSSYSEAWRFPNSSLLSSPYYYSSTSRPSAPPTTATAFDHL
Chain of Caspase-8 (Q14790 217-374 limits assumed): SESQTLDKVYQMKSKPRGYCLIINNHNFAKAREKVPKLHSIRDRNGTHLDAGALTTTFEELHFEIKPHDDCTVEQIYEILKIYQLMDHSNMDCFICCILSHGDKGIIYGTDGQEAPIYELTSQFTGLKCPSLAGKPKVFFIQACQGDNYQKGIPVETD
Chain of Caspase-8 (Q14790 385-479 limits assumed): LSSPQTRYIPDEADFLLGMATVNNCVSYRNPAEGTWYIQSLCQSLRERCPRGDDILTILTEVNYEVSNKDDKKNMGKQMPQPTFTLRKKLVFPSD
Chain of Caspase-7 (P55210 24-198 limits assumed): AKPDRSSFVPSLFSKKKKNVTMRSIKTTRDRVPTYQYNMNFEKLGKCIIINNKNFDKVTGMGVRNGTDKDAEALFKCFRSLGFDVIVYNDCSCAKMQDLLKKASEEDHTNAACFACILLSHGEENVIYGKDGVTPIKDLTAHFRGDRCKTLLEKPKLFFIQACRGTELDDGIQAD
Chain of Caspase-7 (P55210 207-303 limits assumed): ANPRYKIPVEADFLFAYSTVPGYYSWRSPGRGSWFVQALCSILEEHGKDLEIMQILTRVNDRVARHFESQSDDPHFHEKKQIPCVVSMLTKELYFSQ
Chain of C-C chemokine receptor type 6 (P51684 whole entry): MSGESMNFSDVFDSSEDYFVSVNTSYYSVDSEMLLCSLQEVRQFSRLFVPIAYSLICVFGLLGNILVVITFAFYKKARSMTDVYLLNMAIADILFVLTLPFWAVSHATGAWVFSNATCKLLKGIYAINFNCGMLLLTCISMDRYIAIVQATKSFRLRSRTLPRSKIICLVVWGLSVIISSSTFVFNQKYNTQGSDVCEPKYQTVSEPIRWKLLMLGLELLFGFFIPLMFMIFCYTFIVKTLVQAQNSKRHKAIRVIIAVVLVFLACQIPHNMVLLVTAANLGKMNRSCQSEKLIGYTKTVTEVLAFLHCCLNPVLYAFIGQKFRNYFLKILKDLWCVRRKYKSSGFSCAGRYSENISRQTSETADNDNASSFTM
Chain of Eukaryotic translation initiation factor 4E (P63073 whole entry): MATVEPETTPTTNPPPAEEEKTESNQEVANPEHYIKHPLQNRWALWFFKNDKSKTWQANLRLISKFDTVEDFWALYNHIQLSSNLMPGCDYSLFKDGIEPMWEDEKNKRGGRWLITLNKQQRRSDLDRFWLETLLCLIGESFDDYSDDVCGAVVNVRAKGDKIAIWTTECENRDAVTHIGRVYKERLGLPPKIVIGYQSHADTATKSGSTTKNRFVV
Chain of Ephrin type-A receptor 4 (Q03137 whole entry): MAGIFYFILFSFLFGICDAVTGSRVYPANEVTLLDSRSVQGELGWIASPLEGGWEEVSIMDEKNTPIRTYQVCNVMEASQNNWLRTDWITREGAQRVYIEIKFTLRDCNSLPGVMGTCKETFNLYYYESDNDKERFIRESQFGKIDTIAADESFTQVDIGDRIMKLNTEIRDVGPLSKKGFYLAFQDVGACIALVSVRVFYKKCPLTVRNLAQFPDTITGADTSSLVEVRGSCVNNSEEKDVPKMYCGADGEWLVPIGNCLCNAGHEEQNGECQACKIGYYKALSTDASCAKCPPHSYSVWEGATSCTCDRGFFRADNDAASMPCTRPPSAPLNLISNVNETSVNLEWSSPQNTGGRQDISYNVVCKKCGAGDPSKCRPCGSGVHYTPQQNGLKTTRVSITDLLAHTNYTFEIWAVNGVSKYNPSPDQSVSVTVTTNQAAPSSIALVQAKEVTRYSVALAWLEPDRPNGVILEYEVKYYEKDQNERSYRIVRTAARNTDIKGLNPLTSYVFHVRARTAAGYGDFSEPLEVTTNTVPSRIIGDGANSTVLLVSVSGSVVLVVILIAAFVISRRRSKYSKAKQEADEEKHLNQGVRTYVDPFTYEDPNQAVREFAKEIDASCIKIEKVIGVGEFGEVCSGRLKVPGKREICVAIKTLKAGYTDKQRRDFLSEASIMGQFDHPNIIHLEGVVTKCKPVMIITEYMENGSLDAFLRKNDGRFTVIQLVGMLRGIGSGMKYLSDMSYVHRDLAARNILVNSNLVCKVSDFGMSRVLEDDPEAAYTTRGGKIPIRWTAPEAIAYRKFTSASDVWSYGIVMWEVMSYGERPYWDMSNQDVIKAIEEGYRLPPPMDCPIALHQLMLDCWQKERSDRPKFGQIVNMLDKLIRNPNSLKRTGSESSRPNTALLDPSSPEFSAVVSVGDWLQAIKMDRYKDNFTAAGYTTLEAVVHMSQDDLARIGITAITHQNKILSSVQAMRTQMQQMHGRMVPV

Compound: [O-][S+](Cc1cn(Cc2ccccc2)nn1)c1nnc(-c2ccc(Cl)cc2)o1 (stereo not given)
- AC50 [1]: 19.6 µM (active)
- IC90 [2]: 125 µM (active)
- IC90 [3]: 2 µM (active)
- IC90 [4]: 2 µM (active)
- AC50 [5]: 24.2 µM (active)

Compound: COc1ccc(C#Cc2ccc3c(c2)O[C@H](CN(C)C(=O)Nc2cccc(OC)c2)[C@H](C)CN([C@@H](C)CO)S3(=O)=O)cc1
- AC50 [6]: 1.06 µM (active)
- AC50 [7]: 26.3 µM (active)
- AC50 [8]: 1.69 µM (active)
- AC50 [9]: 1.46 µM (active)
- AC50 [10]: 2.21 µM (active)
- AC50 (HEK293): 26.3 µM (active)

Compound: C[C@@H]1CN([C@@H](C)CO)C(=O)Cc2cc(NS(=O)(=O)c3ccccc3)ccc2O[C@H]1CN(C)Cc1ccc(C(F)(F)F)cc1
- AC50 [11]: 28.5 µM (active)
- AC50 [12]: 23.9 µM (active)
- AC50 [13]: 31.6 µM (active)
- AC50 [14]: 17 µM (active)
- AC50 [15]: 45.6 µM (active)
- AC50 [16]: 23.4 µM (active)
- AC50 [17]: 11.1 µM (active)
- AC50 (Paired box protein Pax-8): 6.03 µM (active)
- AC50 [18]: 18.8 µM (active)
- AC50 [19]: 32.6 µM (active)

Compound: COc1ccc(S(=O)(=O)Nc2cc(Sc3nc[nH]n3)c(O)c3ccccc23)cc1
- IC50 (Ephrin type-A receptor 4): 6.77 µM (active)
- AC50 (Caspase-8): 22 µM (active)
- IC50 [20]: 7.73 µM (active)
- AC50 (Caspase-7): 8.7 µM (active)
- AC50 (Caspase-9): 31.6 µM (active)
- AC50 (Caspase-6): 0.998 µM (active)
- IC50 [21]: > 64 µM (inactive)

Compound: C[C@H](CO)N1C[C@H](C)[C@H](CN(C)C)Oc2ccc(NC(=O)Nc3ccc(F)cc3)cc2CC1=O
- AC50 [22]: 11.5 µM (active)

Compound: CC(=O)/N=c1\c(C#N)cc2c(=O)n3ccccc3nc2n1CCCOC(C)C
- AC50 [23]: > 52 µM (inactive)

Compound: CO[C@@H](CN(C)S(=O)(=O)c1ccc(C)cc1)[C@H](C)CN([C@H](C)CO)S(=O)(=O)c1cccc(Cl)c1
- AC50 [24]: 4.83 µM (active)
- AC50 [25]: 4.99 µM (active)

Compound: COc1cc(C(=O)NC2CC3CCCC(C2)N3CC(=O)Nc2ccc(F)cc2)cc(OC)c1OC (stereo not given)
- IC50 [26]: > 79 µM (inactive)
- IC50 [27]: > 79 µM (inactive)

Compound: Oc1ccc(CCNc2ccnc3ccccc23)cc1O
- IC50 [28]: 3.9 µM (active)

Compound: O=C(NCc1cccs1)c1cccc2c(-c3ccc(F)c(F)c3)coc12
- EC50 [29]: > 67.5 µM (inactive)
- IC50 [30]: > 67.5 µM (inactive)

Compound: COc1ccccc1C(=O)NC(=S)Nc1cccnc1Cl
- EC50 (cells): > 67.5 µM (inactive)
- EC50 [31]: > 67.5 µM (inactive)

Compound: O=C(Nc1nnc(C2=COCCO2)o1)c1ccc(S(=O)(=O)N2CCCCC2)cc1
- AC50 [32]: > 100 µM (inactive)

Compound: CO[C@@H]1CN(C)C(=O)c2cc(NC(=O)Nc3ccc(C(F)(F)F)cc3)ccc2OC[C@H](C)NC[C@H]1C
- AC50 [6]: 2.28 µM (active)
- AC50 [33]: 19.3 µM (active)
- AC50 [8]: 3.24 µM (active)
- AC50 [9]: 2.01 µM (active)
- AC50 [10]: 1.61 µM (active)
